The record followed here is PubChem BioAssay AID1259407 (Chemical Carcinogenesis Research Information System (CCRIS), 2018).

Molecules are shown by their SMILES. Activity calls are given as the source filed them. How the calls were made is not given here.

This data set concerns CCRIS mutagenicity, Ames/micronucleus/aberration tests. Briefly: CCRIS mutagenicity studies.
Setting [1] is: Test System: AMES SALMONELLA TYPHIMURIUM, Strain/Indicator: TA98, Metabolic Activation: NONE, Method: PREINCUBATION
Where [2] appears, read: Test System: AMES SALMONELLA TYPHIMURIUM, Strain/Indicator: TA100, Metabolic Activation: NONE, Method: PREINCUBATION
Where [3] appears, read: Test System: AMES SALMONELLA TYPHIMURIUM, Strain/Indicator: TA100, Metabolic Activation: NONE, Method: STANDARD PLATE.
Where [4] appears, read: Test System: AMES SALMONELLA TYPHIMURIUM, Strain/Indicator: TA100, Metabolic Activation: RAT, LIVER, S-9, AROCLOR 1254, Method: STANDARD PLATE.
[5] abbreviates: Test System: AMES SALMONELLA TYPHIMURIUM, Strain/Indicator: TA98, Metabolic Activation: HAMSTER, LIVER, S-9, AROCLOR 1254, Method: PREINCUBATION
[6] abbreviates: Test System: AMES SALMONELLA TYPHIMURIUM, Strain/Indicator: TA98, Metabolic Activation: RAT, LIVER, S-9, AROCLOR 1254, Method: PREINCUBATION
Setting [7] is: Test System: AMES SALMONELLA TYPHIMURIUM, Strain/Indicator: TA100, Metabolic Activation: HAMSTER, LIVER, S-9, AROCLOR 1254, Method: PREINCUBATION
The mark [8] stands for this setting: Test System: AMES SALMONELLA TYPHIMURIUM, Strain/Indicator: TA100, Metabolic Activation: RAT, LIVER, S-9, AROCLOR 1254, Method: PREINCUBATION
[9] abbreviates: Test System: AMES SALMONELLA TYPHIMURIUM, Strain/Indicator: TA1535, Metabolic Activation: HAMSTER, LIVER, S-9, AROCLOR 1254, Method: PREINCUBATION
[10] abbreviates: Test System: AMES SALMONELLA TYPHIMURIUM, Strain/Indicator: TA1535, Metabolic Activation: NONE, Method: PREINCUBATION
[11] abbreviates: Test System: AMES SALMONELLA TYPHIMURIUM, Strain/Indicator: TA1535, Metabolic Activation: RAT, LIVER, S-9, AROCLOR 1254, Method: PREINCUBATION
The mark [12] stands for this setting: Test System: AMES SALMONELLA TYPHIMURIUM, Strain/Indicator: TA1537, Metabolic Activation: HAMSTER, LIVER, S-9, AROCLOR 1254, Method: PREINCUBATION
Where [13] appears, read: Test System: AMES SALMONELLA TYPHIMURIUM, Strain/Indicator: TA1537, Metabolic Activation: NONE, Method: PREINCUBATION
Where [14] appears, read: Test System: AMES SALMONELLA TYPHIMURIUM, Strain/Indicator: TA1537, Metabolic Activation: RAT, LIVER, S-9, AROCLOR 1254, Method: PREINCUBATION

With `Cc1ccccc1O`, the mutagenic call runs as follows: (Test System: Ames Salmonella typhimurium, Strain/Indicator: TA98, Metabolic Activation: Hamster, Liver, S-9, Aroclor 1254 (10%), Method: Preincubation) “inactive; negative”; (Test System: Ames Salmonella typhimurium, Strain/Indicator: TA98, Metabolic Activation: None, Method: Preincubation) “inactive; negative”; (Test System: Ames Salmonella typhimurium, Strain/Indicator: TA98, Metabolic Activation: Rat, Liver, S-9, Aroclor 1254 (10%), Method: Preincubation) “inactive; negative”; (Test System: Ames Salmonella typhimurium, Strain/Indicator: TA100, Metabolic Activation: Hamster, Liver, S-9, Aroclor 1254 (10%), Method: Preincubation) “inactive; negative”; (Test System: Ames Salmonella typhimurium, Strain/Indicator: TA100, Metabolic Activation: None, Method: Preincubation) “inactive; negative”; (Test System: Ames Salmonella typhimurium, Strain/Indicator: TA100, Metabolic Activation: Rat, Liver, S-9, Aroclor 1254 (10%), Method: Preincubation) “inactive; negative”. In addition, the mutagenic call (Test System: Ames Salmonella typhimurium, Strain/Indicator: TA1535, Metabolic Activation: Hamster, Liver, S-9, Aroclor 1254 (10%), Method: Preincubation) was “inactive; negative”; the mutagenic call (Test System: Ames Salmonella typhimurium, Strain/Indicator: TA1535, Metabolic Activation: None, Method: Preincubation) was “inactive; negative”; the mutagenic call (Test System: Ames Salmonella typhimurium, Strain/Indicator: TA1535, Metabolic Activation: Rat, Liver, S-9, Aroclor 1254 (10%), Method: Preincubation) is “inactive; negative”; the mutagenic call (Test System: Ames Salmonella typhimurium, Strain/Indicator: TA1537, Metabolic Activation: Hamster, Liver, S-9, Aroclor 1254 (10%), Method: Preincubation) was “inactive; negative”; the mutagenic call (Test System: Ames Salmonella typhimurium, Strain/Indicator: TA1537, Metabolic Activation: None, Method: Preincubation) is “inactive; negative”; the mutagenic call (Test System: Ames Salmonella typhimurium, Strain/Indicator: TA1537, Metabolic Activation: Rat, Liver, S-9, Aroclor 1254 (10%), Method: Preincubation) was “inactive; negative”.

In the case of `O=C(Cl)C(Cl)Cl`, the mutagenic call is, setting by setting: (Test System: AMES SALMONELLA TYPHIMURIUM, Strain/Indicator: TA98, Metabolic Activation: HAMSTER, LIVER, S-9, AROCLOR 1254 (30%), Method: PREINCUBATION) “inactive; negative”; under setting [1], “inactive; negative”; (Test System: AMES SALMONELLA TYPHIMURIUM, Strain/Indicator: TA98, Metabolic Activation: RAT, LIVER, S-9, AROCLOR 1254 (30%), Method: PREINCUBATION) “inactive; negative”; (Test System: AMES SALMONELLA TYPHIMURIUM, Strain/Indicator: TA100, Metabolic Activation: HAMSTER, LIVER, S-9, AROCLOR 1254 (30%), Method: PREINCUBATION) “inactive; negative”; (Test System: AMES SALMONELLA TYPHIMURIUM, Strain/Indicator: TA100, Metabolic Activation: NONE, Method: BAG VAPORIZATION) “active; positive”; under setting [2], “active; positive”. The mutagenic call runs as follows: (Test System: AMES SALMONELLA TYPHIMURIUM, Strain/Indicator: TA100, Metabolic Activation: RAT, LIVER, S-9, AROCLOR 1254 (30%), Method: PREINCUBATION) “inactive; negative”; (Test System: AMES SALMONELLA TYPHIMURIUM, Strain/Indicator: TA100, Metabolic Activation: RAT, LIVER, S-9, AROCLOR 1254, Method: BAG VAPORIZATION) “inactive; negative”.

As to `c1ccc2c(c1)sc1ccccc12`, the mutagenic call (Test System: CHINESE HAMSTER OVARY, Strain/Indicator: CHO-K1-BH4 (HGPRT)/6-THIOGUANINE, Metabolic Activation: RAT, LIVER, S-9, AROCLOR (4%)) was “inactive; negative”.

In the case of `c1ccc2c(c1)-c1ccc3ccccc3c1C1OC21` (stereo not drawn), the mutagenic call runs as follows: under setting [1], “active; positive”; (Test System: AMES SALMONELLA TYPHIMURIUM, Strain/Indicator: TA98, Metabolic Activation: NONE, Method: PREINCUBATION (KCL-CONTAINING MEDIUM)) “active; positive”; (Test System: AMES SALMONELLA TYPHIMURIUM, Strain/Indicator: TA98, Metabolic Activation: NONE, Method: PREINCUBATION (KCL-FREE MEDIUM)) “active; positive”; under setting [2], “active; positive”; (Test System: AMES SALMONELLA TYPHIMURIUM, Strain/Indicator: TA100, Metabolic Activation: NONE, Method: PREINCUBATION (KCL-CONTAINING OR KCL-FREE MEDIA)) “active; positive”; under setting [3], “active; positive”. Moreover, the mutagenic call is “inactive; negative” under setting [4]; “active; positive” (Test System: AMES SALMONELLA TYPHIMURIUM, Strain/Indicator: TA1537, Metabolic Activation: NONE, Method: STANDARD PLATE); “active; positive” (Test System: CHINESE HAMSTER V-79, Strain/Indicator: V-79/6-THIOGUANINE, Metabolic Activation: NONE, Method: STANDARD PLATE).

`CCCCOC(=O)C=Cc1ccc([N+](=O)[O-])o1`: under setting [1], the mutagenic call is “active; positive”.

Take `C(=C/c1ccccc1)/c1ccccc1`: the mutagenic call reads like this: under setting [5], “inactive; negative”; under setting [1], “inactive; negative”; under setting [6], “inactive; negative”; under setting [7], “inactive; negative”; under setting [2], “inactive; negative”; under setting [8], “inactive; negative”. In addition, the mutagenic call is, setting by setting: under setting [9], “inactive; negative”; under setting [10], “inactive; negative”; under setting [11], “inactive; negative”; under setting [12], “inactive; negative”; under setting [13], “inactive; negative”; under setting [14], “inactive; negative”.

As to `O=[N+]([O-])c1ccc2[nH]ncc2c1`, the mutagenic call reads like this: (Test System: AMES SALMONELLA TYPHIMURIUM, Strain/Indicator: TA98, Metabolic Activation: HAMSTER, LIVER, S-9, AROCLOR 1254, Method: STANDARD PLATE) “active; positive”; (Test System: AMES SALMONELLA TYPHIMURIUM, Strain/Indicator: TA98, Metabolic Activation: NONE, Method: STANDARD PLATE) “active; positive”; (Test System: AMES SALMONELLA TYPHIMURIUM, Strain/Indicator: TA98, Metabolic Activation: RAT, LIVER, S-9, AROCLOR 1254, Method: STANDARD PLATE) “active; positive”; (Test System: AMES SALMONELLA TYPHIMURIUM, Strain/Indicator: TA100, Metabolic Activation: HAMSTER, LIVER, S-9, AROCLOR 1254, Method: STANDARD PLATE) “active; positive”; under setting [3], “active; positive”; under setting [4], “active; positive”. In addition, the mutagenic call reads like this: (Test System: MOUSE LYMPHOMA, Strain/Indicator: L5178Y (TK+/TK-), Metabolic Activation: NONE, Method: SUSPENSION/PLATE) “inactive; negative. reevaluation of results: negative”; (Test System: MOUSE LYMPHOMA, Strain/Indicator: L5178Y (TK+/TK-), Metabolic Activation: RAT, LIVER, S-9, AROCLOR 1254, Method: SUSPENSION/PLATE) “inactive; negative. reevaluation of results: negative”.

As for `CC(=O)NNC(=O)c1ccccn1`, the mutagenic call is “inactive; negative” under setting [5]; “inactive; negative” under setting [1]; “inactive; negative” under setting [6]; “inactive; negative” under setting [7]; “inactive; negative” under setting [2]; “inactive; negative” under setting [8]. Besides, the mutagenic call is “inactive; negative” under setting [9]; “inactive; negative” under setting [10]; “inactive; negative” under setting [11]; “inactive; negative” under setting [12]; “inactive; negative” under setting [13]; “inactive; negative” under setting [14].
